The target of data set [1] is Tyrosine-protein kinase JAK2 (Homo sapiens, UniProt O60674). The experiment in a line: Inhibition of JAK2 (unknown origin) using TK-biotin as substrate incubated for 30 mins in presence of ATP by HTRF assay.
The nature of data set [2]: Oral bioavailability in Sprague-Dawley rat at 3.5 mg/kg measured for 24 hrs by LC-MS/MS analysis. Type of data set: ADME, organism-based. The settings on record: in vivo.
Data set [3] relates to Mus musculus. Briefly: Anti-inflammatory activity in C57BL/6 mouse model of LPS-induced acute lung injury assessed as decrease in IL-6 mRNA level in lung at 10 mg/kg, ip treated for 3 days followed by LPS treatment after 1 hr post-compound administration on fourth day measured after 18 hrs post-LPS treatment by RT-qPCR analysis. The note with it: time 91.0 hrs. The class given is functional, organism-based.

The target of data set [4] is T1, Tyrosine-protein kinase JAK3 (Homo sapiens, UniProt P52333).
T1 sequence (P52333 whole entry): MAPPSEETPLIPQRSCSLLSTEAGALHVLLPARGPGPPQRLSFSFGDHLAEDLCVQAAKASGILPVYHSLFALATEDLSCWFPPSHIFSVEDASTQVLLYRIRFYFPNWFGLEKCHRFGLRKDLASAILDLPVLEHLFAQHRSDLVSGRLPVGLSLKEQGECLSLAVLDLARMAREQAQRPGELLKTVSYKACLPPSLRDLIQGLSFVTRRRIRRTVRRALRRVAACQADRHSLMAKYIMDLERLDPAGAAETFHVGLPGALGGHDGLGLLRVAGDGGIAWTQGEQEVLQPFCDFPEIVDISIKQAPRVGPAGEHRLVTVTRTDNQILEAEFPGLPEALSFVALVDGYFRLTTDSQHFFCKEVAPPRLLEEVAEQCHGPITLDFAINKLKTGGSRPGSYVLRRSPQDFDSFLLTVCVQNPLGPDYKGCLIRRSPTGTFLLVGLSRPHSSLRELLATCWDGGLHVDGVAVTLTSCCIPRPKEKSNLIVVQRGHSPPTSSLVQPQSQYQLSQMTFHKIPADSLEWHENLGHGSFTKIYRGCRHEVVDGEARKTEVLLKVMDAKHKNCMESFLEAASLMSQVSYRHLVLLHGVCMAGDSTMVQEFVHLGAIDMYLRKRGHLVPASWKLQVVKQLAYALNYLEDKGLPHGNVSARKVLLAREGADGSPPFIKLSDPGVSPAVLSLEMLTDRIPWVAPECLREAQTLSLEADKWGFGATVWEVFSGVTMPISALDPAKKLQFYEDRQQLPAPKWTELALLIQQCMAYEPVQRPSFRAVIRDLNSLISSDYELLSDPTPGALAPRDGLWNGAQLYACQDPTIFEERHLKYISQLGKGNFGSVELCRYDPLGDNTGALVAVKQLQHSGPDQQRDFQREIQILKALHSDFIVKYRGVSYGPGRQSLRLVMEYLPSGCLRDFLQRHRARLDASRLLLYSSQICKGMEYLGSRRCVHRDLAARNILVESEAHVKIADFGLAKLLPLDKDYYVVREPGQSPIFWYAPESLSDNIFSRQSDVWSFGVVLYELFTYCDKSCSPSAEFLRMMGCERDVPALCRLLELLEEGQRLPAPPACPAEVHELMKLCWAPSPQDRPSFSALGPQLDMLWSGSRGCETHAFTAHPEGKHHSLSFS
The experiment in a line: Inhibition of JAK3 (unknown origin) using TK-biotin as substrate incubated for 30 mins in presence of ATP by HTRF assay.

The subject of data set [5] is HBE. Briefly: Anti-inflammatory activity against HBE cells assessed as inhibition of LPS-induced p-p65 level pretreated for 30 mis followed by LPS treatment for 16 hrs by Western blot analysis. Type of data set: functional, cell-based. The note with it: Homo sapiens, dose 0.5-5 µM, time 16.5 hrs.
Data set [6] in a line: Cmax in Sprague-Dawley rat at 3.5 mg/kg, po measured for 24 hrs by LC-MS/MS analysis. Type of data set: ADME, organism-based. The note with it: in vivo.
Data set [7] deals with RAW264.7. The experiment in a line: Anti-inflammatory activity against mouse RAW264.7 cells assessed as inhibition of LPS-induced IL-6 mRNA level at 50 to 500 nM by RT-qPCR analysis. The class given is functional, cell-based. The note with it: dose 50-500 nM.
Data set [8] has as its system HBE. Briefly: Anti-inflammatory activity against HBE cells assessed as inhibition of LPS-induced IL-6 level pretreated for 30 mins followed by LPS treatment for 24 hrs by ELISA. The settings on record: Homo sapiens, dose <= 5.0 µM, time 24.5 hrs.
The test system of data set [9] is Mus musculus. The experiment in a line: Anti-inflammatory activity in C57BL/6 mouse model of LPS-induced acute lung injury assessed as decrease in alveolar hemorrhage in lung at 10 mg/kg, ip treated for 3 days followed by LPS treatment after 1 hr post-compound administration on fourth day measured after 18 hrs post-LPS treatment by H and E staining based analysis. Type of data set: functional, organism-based. The note with it: time 91.0 hrs.

The subject of data set [10] is RAW264.7. Briefly: Cytotoxicity against mouse RAW264.7 cells assessed as cell viability at 0.5 to 5 uM. Type of data set: toxicity, cell-based. The note with it: raw264.7, 5 µM, dose 0.5-5 µM.
Data set [11] has as its target Non-receptor tyrosine-protein kinase TYK2 (Homo sapiens, UniProt P29597). The experiment in a line: Inhibition of TYK2 (unknown origin) using TK-biotin as substrate incubated for 120 mins in presence of ATP by HTRF assay.
In data set [12] the test system is RAW264.7. Briefly: Anti-inflammatory activity against mouse RAW264.7 cells assessed as inhibition of LPS-induced IL-1beta level at 50 to 500 nM. The settings on record: dose 50-500 nM. The class given is functional, cell-based.
The test system of data set [13] is Mus musculus. Briefly: Anti-inflammatory activity in C57BL/6 mouse model of LPS-induced acute lung injury assessed as decrease in TNF-alpha mRNA level in lung at 10 mg/kg, ip treated for 3 days followed by LPS treatment after 1 hr post-compound administration on fourth day measured after 18 hrs post-LPS treatment by RT-qPCR analysis. The class given is functional, organism-based. The note with it: time 91.0 hrs.

The target in data set [14] is T2, Serine/threonine-protein kinase Chk1 (Homo sapiens) (UniProt O14757).
T2 sequence (whole entry): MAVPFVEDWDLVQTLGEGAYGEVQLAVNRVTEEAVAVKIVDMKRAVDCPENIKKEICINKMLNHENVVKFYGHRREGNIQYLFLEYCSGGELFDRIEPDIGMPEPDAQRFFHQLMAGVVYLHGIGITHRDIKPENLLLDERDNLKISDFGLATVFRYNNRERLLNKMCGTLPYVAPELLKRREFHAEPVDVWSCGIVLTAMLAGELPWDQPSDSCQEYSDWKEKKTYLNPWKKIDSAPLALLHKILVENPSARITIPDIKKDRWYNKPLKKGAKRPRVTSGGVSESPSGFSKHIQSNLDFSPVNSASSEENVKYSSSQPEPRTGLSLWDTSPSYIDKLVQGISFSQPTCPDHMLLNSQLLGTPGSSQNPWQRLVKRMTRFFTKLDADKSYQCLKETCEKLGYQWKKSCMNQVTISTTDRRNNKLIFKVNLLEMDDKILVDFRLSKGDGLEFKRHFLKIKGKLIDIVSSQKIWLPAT
Briefly: Inhibition of CHK1 (unknown origin) at 1 uM by kinase profiling analysis relative to control.

For data set [15], the system named is Mus musculus. Briefly: Anti-inflammatory activity in C57BL/6 mouse model of LPS-induced acute lung injury assessed as decrease in wet to dry ratio in lung at 10 mg/kg, ip treated for 3 days followed by LPS treatment after 1 hr post-compound administration on fourth day measured after 18 hrs post-LPS treatment. The class given is functional, organism-based. The note with it: time 91.0 hrs.

Active and inactive are the calls of the source. The rule behind the calls is not given here.

Chain of Non-receptor tyrosine-protein kinase TYK2 (P29597 whole entry): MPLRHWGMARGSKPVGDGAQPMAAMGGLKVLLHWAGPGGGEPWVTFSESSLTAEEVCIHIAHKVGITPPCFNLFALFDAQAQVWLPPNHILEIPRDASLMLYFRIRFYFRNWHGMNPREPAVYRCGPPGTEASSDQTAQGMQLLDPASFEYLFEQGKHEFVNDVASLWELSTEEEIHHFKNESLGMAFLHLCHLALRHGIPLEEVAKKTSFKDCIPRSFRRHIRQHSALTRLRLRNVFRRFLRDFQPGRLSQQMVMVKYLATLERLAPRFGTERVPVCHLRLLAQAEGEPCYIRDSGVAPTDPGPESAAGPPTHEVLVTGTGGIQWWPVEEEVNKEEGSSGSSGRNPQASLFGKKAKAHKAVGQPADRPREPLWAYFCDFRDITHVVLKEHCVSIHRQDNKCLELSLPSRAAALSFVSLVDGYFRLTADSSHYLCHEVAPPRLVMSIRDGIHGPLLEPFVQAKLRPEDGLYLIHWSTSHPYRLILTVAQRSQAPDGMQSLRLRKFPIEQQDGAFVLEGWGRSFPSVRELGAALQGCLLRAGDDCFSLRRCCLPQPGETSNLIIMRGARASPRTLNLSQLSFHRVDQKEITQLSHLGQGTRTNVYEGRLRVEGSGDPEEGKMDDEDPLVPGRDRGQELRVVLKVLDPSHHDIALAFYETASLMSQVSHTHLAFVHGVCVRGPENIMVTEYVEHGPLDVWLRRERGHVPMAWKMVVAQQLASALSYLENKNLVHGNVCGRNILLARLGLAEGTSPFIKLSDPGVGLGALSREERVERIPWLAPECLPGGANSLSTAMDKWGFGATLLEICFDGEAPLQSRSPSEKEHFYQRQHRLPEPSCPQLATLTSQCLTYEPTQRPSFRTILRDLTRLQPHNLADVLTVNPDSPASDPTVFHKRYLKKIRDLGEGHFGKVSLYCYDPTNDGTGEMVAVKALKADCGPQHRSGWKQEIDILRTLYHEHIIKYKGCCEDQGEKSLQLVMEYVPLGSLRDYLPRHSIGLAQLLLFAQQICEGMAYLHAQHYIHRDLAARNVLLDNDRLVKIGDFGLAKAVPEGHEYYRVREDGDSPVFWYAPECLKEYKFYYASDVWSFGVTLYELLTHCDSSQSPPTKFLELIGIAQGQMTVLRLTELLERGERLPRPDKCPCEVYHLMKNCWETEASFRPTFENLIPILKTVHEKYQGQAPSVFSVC
Chain of Tyrosine-protein kinase JAK2 (O60674 whole entry): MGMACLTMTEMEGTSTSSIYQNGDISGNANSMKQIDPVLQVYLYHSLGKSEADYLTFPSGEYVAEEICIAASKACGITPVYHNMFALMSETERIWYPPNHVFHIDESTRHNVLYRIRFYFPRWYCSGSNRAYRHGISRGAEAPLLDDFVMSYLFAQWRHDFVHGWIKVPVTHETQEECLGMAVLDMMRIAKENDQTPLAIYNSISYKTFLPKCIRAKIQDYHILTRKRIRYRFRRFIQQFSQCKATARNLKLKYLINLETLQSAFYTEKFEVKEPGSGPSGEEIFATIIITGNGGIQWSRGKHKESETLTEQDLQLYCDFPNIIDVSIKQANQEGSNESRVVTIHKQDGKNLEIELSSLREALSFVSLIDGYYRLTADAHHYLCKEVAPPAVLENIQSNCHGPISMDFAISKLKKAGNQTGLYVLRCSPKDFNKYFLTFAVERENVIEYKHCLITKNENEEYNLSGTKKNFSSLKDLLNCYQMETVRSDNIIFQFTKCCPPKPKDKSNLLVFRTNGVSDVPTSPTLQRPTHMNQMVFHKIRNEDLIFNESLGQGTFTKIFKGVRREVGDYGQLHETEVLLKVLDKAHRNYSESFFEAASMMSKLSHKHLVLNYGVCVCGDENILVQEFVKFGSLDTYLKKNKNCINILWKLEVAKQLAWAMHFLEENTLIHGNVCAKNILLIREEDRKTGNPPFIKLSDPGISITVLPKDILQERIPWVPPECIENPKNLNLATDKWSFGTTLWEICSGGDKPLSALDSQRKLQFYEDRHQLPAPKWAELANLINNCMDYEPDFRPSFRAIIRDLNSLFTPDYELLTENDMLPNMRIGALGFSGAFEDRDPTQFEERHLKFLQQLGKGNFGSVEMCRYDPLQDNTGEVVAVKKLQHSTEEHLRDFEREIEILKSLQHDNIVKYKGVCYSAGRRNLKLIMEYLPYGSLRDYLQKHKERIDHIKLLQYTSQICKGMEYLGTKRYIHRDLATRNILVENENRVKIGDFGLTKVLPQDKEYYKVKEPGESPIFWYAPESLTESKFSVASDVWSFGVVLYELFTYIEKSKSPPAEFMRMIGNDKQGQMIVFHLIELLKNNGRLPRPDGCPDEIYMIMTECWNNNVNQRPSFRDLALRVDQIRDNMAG

With `Cl.Cn1cc(-c2ccnc(Nc3cccc(N)c3)n2)c2ccccc21`, the results for the IC50 in data set [1], in data set [4] and in data set [11] were 5.25 nM, 27.3 nM and 173 nM, respectively. The bioavailability in [2] worked out at 24.9%. Besides, the result with Mus musculus [3], in the data set with Mus musculus [9], with Mus musculus [13] and in the data set on Mus musculus [15] was Active. Further, the inhibition result with HBE [5] was “Dose-dependent-effect”; with HBE [8], “Dose-dependent-effect”; in data set [14], 81.7%. For the same molecule, in data set [6], the peak level (Cmax) was 65.2 ng/mL. For the same molecule, the inhibition entry in the data set on RAW264.7 [7] and in the data set with RAW264.7 [12] was “Active” in each case. In addition, the Activity entry in the data set on RAW264.7 [10] is recorded as “Non-toxic”.
Molecule `Cc1ccc(Nc2nccc(-c3cn(C)c4ccccc34)n2)cc1N.Cl` showed a bioavailability in [2] of 51.1%. Besides, the result with Mus musculus [3], in the data set with Mus musculus [9], with Mus musculus [13] and in the data set with Mus musculus [15] was Active. Besides, the inhibition entry in the data set on HBE [5] was “Dose-dependent-effect”. Also, in data set [6], the concentration peaked (Cmax) at 193 ng/mL. Also, the inhibition result in the data set on RAW264.7 [7] and with RAW264.7 [12] was “Active” in each case. Besides, the Activity entry in the data set with RAW264.7 [10] was “Non-toxic”.

(Values after ChEMBL document CHEMBL6087451, “Design, Synthesis, and Biological Evaluation of 2-Arylaminopyrimidine Derivatives as Dual Cathepsin L and JAK Inhibitors for the Treatment of Acute Lung Injury” (J Med Chem, 2025).)
